From ChEMBL document CHEMBL5209575, “Membrane potential based assay for SLC1A1 using HEK-293 SLC1A1 OE cells” (2022)
pEC50: −log10 of the molar value.

Target: T1, Excitatory amino acid transporter 3 (Homo sapiens, UniProt P43005)
T1 sequence (P43005 whole entry): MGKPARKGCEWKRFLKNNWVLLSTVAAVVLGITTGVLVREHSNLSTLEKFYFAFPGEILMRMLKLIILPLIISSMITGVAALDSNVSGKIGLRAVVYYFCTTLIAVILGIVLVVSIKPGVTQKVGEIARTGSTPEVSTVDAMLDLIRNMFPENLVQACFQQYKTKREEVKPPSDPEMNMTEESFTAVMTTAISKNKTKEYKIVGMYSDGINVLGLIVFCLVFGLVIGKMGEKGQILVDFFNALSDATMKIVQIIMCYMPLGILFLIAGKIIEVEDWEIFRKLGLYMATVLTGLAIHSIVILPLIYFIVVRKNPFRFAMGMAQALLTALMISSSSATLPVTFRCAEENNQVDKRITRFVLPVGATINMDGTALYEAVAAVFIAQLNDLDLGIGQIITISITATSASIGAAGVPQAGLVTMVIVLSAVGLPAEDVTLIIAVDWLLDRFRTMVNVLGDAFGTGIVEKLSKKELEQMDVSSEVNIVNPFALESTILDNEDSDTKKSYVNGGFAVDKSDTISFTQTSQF
Assay: Substrate uptake by the Excitatory Amino Acid Transporter 3 (EAAT3, SLC1A1) as assessed by the fluorescent FLIPR membrane potential dye in HEK-293 JumpIN-SLC1A1 cells (PubChem AID: 1794812)
Type: functional, cell-based, HEK293
Settings: for EC50: hek293

N[C@@H](CCC(=O)O)C(=O)O [GLUTAMIC ACID]
EC50: Substrate: The Commpound Is Eliciting A Specific Response, But A Broader Concentration Range Is Needed To Calculate A Correct Ec50

N[C@@H](CC(=O)O)C(=O)O [ASPARTIC ACID]
EC50: Substrate: The Commpound Is Eliciting A Specific Response, But A Broader Concentration Range Is Needed To Calculate A Correct Ec50

N[C@@H](CS)C(=O)O [CYSTEINE]
pEC50 (read-out: EC50): 3.79
